# According to patent publication US6180600A, “CD8 antagonists” (Thomas Jefferson University, priority 1997, dated 2001):
# Bridge positions count the residues as written; N and C are the ends. Ends that are not written are not given here.
# Experiments:
# [1] = system: activation of CTL in AKR/J anti C57BL/6 mixed lymphocyte reaction; test: Inhibition of activation/generation of cytotoxic T-cells: mixed lymphocyte reaction in presence of peptide, then 51Cr release; format: cell-based, mouse; settings: peptide present during MLR; effectors washed on Day-6; 4-hour lysis of EL-4 targets
# Protocol: The effect of the peptide on the activation of CTL capable of lympholysis was determined by generating effector T-cells in AKR/J anti C57BL/6 mixed lymphocyte reaction in the presence of peptide. On Day-6, effectors are washed and then ^51 Cr-labelled EL-4 targets were added in a 4-hour specific lysis experiment.
# [2] = system: cytotoxic T-cell mediated lympholysis of 51Cr labelled EL-4 (H-2b) targets; test: 4 hour 51Cr release assay: inhibition of cytotoxic T-cell mediated lympholysis by peptide; format: cell-based, mouse (AKR/J anti C57BL/6 effectors); settings: for inhibition of specific lysis of targets: peptide 100, 10 or 1 μg/ml pre-incubated 30 minutes at 37° C. with effectors, Effector:Target 30:1, 10:1, 3:1, 1:1, 4 hour lysis
# Protocol: The effect of peptide on cytotoxicity was measured in a 4 hour ^51 Cr release assay. H-2^b specific effectors were generated in a AKR/J (H-2^k) anti C57BL/6 (H-2^b) mixed lymphocyte reaction. The stimulators (C57BL/6 spleen cells) are gamma-irradiated at 1500 RADS. The targets were obtained from a tumor cell line, EL-4 (H-2^b), that were labelled with Na^51 CrO4. On Day 5 the effectors are harvested and counted. The peptide, at concentrations of 100 μg/ml, 10 μg/ml or 1 μg/ml, was first incubated for 30 minutes at 37° C. with effectors of varying numbers and then ^51 Cr labelled targets were added in a 4 hour specific lysis experiment. The target cell lysis was assessed at Effector:Target ratios of 30:1, 10:1, 3:1, and 1:1. Toxic effects of the peptide was determined by the % specific lysis above background that was obtained by incubating just peptide and labelled targets. No toxic effects were observed. Also, anti-CD8 monoclonal antibody that blocks the interaction resulting in lowered lympholysis is used in the assay.
# [3] = system: allogeneic skin graft rejection; test: Murine skin transplantation (tail skin allograft onto bm1 recipients); format: in vivo, mouse
# Text: Tail skin from C57BL/7 [H-2b] donor is grafted onto the ventral side of bm1 recipient tails. The donors are asphyxiated and 2×4 mm tail pieces are cut. These grafts are placed in 0.1% BSA in PBS on ice. Recipients are anesthetized in isoflurane chamber. While still anesthetized, grafting beds of 10×10 mm on the ventral side of the tail are cut. Two grafting beds per mouse are made, one for syngeneic graft and the other for the allogeneic graft. The grafts are turned 180' and placed in the beds such that the hair of the graft grows in the opposite direction. The grafts are trimmed if necessary such that they fit in the beds without skin hanging over the edge of the beds. A blunt glass tube is placed over the grafts and taped into place. This glass is removed on day 2 post-transplantation.
# Five animals per treatment group are used and treatment is prior to transplantation. The untreated group is injected into the tail vein with 200 μl of PBS on Day 0.
# Grafts are observed every other day for signs of rejection. […] Grafts are considered rejected due to mechanical failure if the grafts are rejected by Day 3.
# [4] = system: GVHD, primarily CD8+ based; test: Murine model of GVHD (B10.BR ATBM plus CD8+ T-cells into lethally irradiated host); format: in vivo, mouse; settings: 0.5 mgs peptide on Day 0, 3 and 6; FIG. 2
# Protocol: Donor bone marrow is harvested from tibias and femurs of B10.BR mice. T-cells are eliminated from the bone marrow by treatment with anti-Thy1.2 and complement. Complement treatment for 2 cycles at 37° C. for 1 hour each results in more than 90% pure population of bone marrow cells. 10×10^6 T-cell depleted bone marrow [ATBM] cells are injected into the tail vein. Donor splenocytes undergo red blood cell lysis followed by B cell and CD4+ T-cells are depletion using anti-J1J and anti-RL147 antibodies, respectively. This purified CD8+ T-cell population from donors (5×10^6 cells) is injected into the tail vein of the animal. The host is lethally irradiated at 850 cGy approximately 6 hours prior to bone marrow transplantation. Characteristic features of murine acute GVHD include weight loss, diarrhea and loss of hair and death. Body weights were monitored before and after treatment. The treated mice were housed in sterile conditions and observed daily for acute GVHD-like reactions. Lethally irradiated mice reconstituted with ATBM only survive without signs of disease. Mice are treated with 0.5 mgs of SC2 peptide on Day 0, 3 and 6.
Substance,inhibition of specific lysis of targets (effectors generated in presence of peptide) [1],inhibition of specific lysis of targets [2],further results
C-D-E-K-L-N-S-S-K-L-C (CDEKLNSSKLC; not fully specified; printed as C-D-E-K-L-N-S-S-K-L-C; cysteine pairing not given here) [SC11],show inhibition of specific lysis of targets in a concentration dependent manner,does not,–
C-S-S-H-N-K-P-C (CSSHNKPC) [SC2],show inhibition of specific lysis of targets in a concentration dependent manner,inhibits specific lysis of targets in a concentration dependent manner,"skin graft survival ([3]; 0.5 mgs/200 μl PBS in the tail vein on Day 0, FIG. 1): consistently prolonged skin graft survival with biological significance; onset of GVHD [4]: delays the onset of GVHD"
"CLSQNKPC (disulfide 1-8 (inferred)) [Wu-1, cyclic peptide consisting of human CD8 amino acids 52-57 with amino terminal and carboxy terminal cysteines]",–,–,"inhibition of killing ([2]; 51[Cr]-release assay as described in Example 2, FIG. 3): approximately 50%"
Wu-2: linear peptide consisting of human CD8 amino acids 37-47 (CQPRGAAASPC),–,–,"rejection of skin grafts ([3]; skin transplantation assay of Example 4, FIG. 4): significant delay in rejection"
